According to US4471131A, “Novel silyl esters of N-phosphonomethylglycine” (Monsanto Company, priority 1983, dated 1984):

Assays:
Assay in all cases: post-emergence herbicidal activity, greenhouse
Format in all cases: in vivo
Barnyardgrass = conditions: Table III, formulated in anhydrous tetrahydrofuran
Source text: (§1) A good grade of top soil is placed in aluminum pans having holes in the bottom and compacted to a depth of 0.95 to 1.27 cm. from the top of the pan. A predetermined number of seeds of each of several dicotyledonous and moncotyledonous annual plant species and/or vegetative propagules for the perennial plant species were placed on the soil and pressed into the soil surface. The seeds and/or vegetative propagules are covered with soil and leveled. The pans are then placed on a sand bench in the greenhouse and watered from below as needed. After the plants reach the desired age (two to three weeks), each pan, except for the control pans, is removed individually to a spraying chamber and sprayed by means of an atomizer at the rates noted. In the spray solution is an amount of an emulsifying agent mixture to give a spray solution or suspension which contains about 0.4% by weight of the emulsifier. The spray solution or suspension contains a sufficient amount of the candidate chemical in order to give application rates corresponding to those set forth in the tables. The pans were returned to the greenhouse and watered as before and the injury to the plants as compared to the control is observed at approximately two and four weeks and the results recorded. In the tables, WAT means "weeks after treatment."
(§2) The post-emergent herbicidal activity index used in Tables II and III is as follows:
(§3) The plant species utilized in these tests are identified by letter in accordance with the following legend: […]

Hemp Sesbania = conditions: Table III, formulated in anhydrous tetrahydrofuran
Source text: as §1, §2, §3

Pennsylvania Smartweed = conditions: formulated in anhydrous tetrahydrofuran
Source text: as §1, §2, §3

Rice = conditions: Table III, formulated in anhydrous tetrahydrofuran
Source text: as §1, §2, §3

Downy Brome = conditions: formulated in anhydrous tetrahydrofuran
Source text: as §1, §2, §3

Velvetleaf = conditions: formulated in anhydrous tetrahydrofuran
Source text: as §1, §2, §3

Wild Buckwheat = conditions: Table III, formulated in anhydrous tetrahydrofuran
Source text: as §1, §2, §3

Johnsongrass = conditions: Table II, formulated in anhydrous tetrahydrofuran
Source text: as §1, §2, §3

Panicum Spp = conditions: Table III, formulated in anhydrous tetrahydrofuran
Source text: as §1, §2, §3

CCCCOC(=O)CNCP(=O)(O)O[Si](C)(C)C(C)(C)C [Ex. 3, Glycine, N-((([(1,1-Dimethylethyl)Dimethylsilyl]oxy)Hydroxyphosphinyl)Methyl)-, Butyl Ester]
2 (50-74% inhibition): Plant Response Index (K) (Barnyardgrass; 2 WAT, 1.1 kg/h) | Plant Response Index (K) (Barnyardgrass; 2 WAT, 5.6 kg/h) | Plant Response Index (K) (Barnyardgrass; 4 WAT, 1.1 kg/h) | Plant Response Index (F) (Pennsylvania Smartweed; Table II, 2 WAT, 11.2 kg/h) | Plant Response Index (F) (Pennsylvania Smartweed; Table III, 2 WAT, 1.1 kg/h) | Plant Response Index (F) (Pennsylvania Smartweed; Table III, 2 WAT, .28 kg/h) | Plant Response Index (F) (Pennsylvania Smartweed; Table III, 4 WAT, 1.1 kg/h) | Plant Response Index (F) (Pennsylvania Smartweed; Table III, 4 WAT, .28 kg/h) | Plant Response Index (O) (Rice; 4 WAT, 5.6 kg/h) | Plant Response Index (C) (Velvetleaf; Table II, 4 WAT, 11.2 kg/h) | Plant Response Index (C) (Velvetleaf; Table III, 2 WAT, 1.1 kg/h) | Plant Response Index (C) (Velvetleaf; Table III, 4 WAT, 1.1 kg/h) | Plant Response Index (C) (Velvetleaf; Table III, 4 WAT, .28 kg/h) | Plant Response Index (Q) (Wild Buckwheat; 2 WAT, 1.1 kg/h) | Plant Response Index (Q) (Wild Buckwheat; 4 WAT, 1.1 kg/h) | Plant Response Index (I) (Johnsongrass; 4 WAT, 11.2 kg/h) | Plant Response Index (S) (Panicum Spp; 4 WAT, 1.1 kg/h)
3 (75-99% inhibition): Plant Response Index (K) (Barnyardgrass; 4 WAT, 5.6 kg/h) | Plant Response Index (F) (Pennsylvania Smartweed; Table II, 4 WAT, 11.2 kg/h) | Plant Response Index (F) (Pennsylvania Smartweed; Table III, 2 WAT, 5.6 kg/h) | Plant Response Index (F) (Pennsylvania Smartweed; Table III, 4 WAT, 5.6 kg/h) | Plant Response Index (C) (Velvetleaf; Table III, 2 WAT, 5.6 kg/h) | Plant Response Index (Q) (Wild Buckwheat; 2 WAT, 5.6 kg/h) | Plant Response Index (S) (Panicum Spp; 2 WAT, 5.6 kg/h) | Plant Response Index (S) (Panicum Spp; 4 WAT, 5.6 kg/h)
1 (25-49% inhibition): Plant Response Index (K) (Barnyardgrass; 2 WAT, .28 kg/h) | Plant Response Index (K) (Barnyardgrass; 4 WAT, .28 kg/h) | Plant Response Index (R) (Hemp Sesbania; 2 WAT, 1.1 kg/h) | Plant Response Index (R) (Hemp Sesbania; 2 WAT, .28 kg/h) | Plant Response Index (R) (Hemp Sesbania; 4 WAT, 1.1 kg/h) | Plant Response Index (F) (Pennsylvania Smartweed; Table II, 2 WAT, 5.6 kg/h) | Plant Response Index (F) (Pennsylvania Smartweed; Table II, 4 WAT, 5.6 kg/h) | Plant Response Index (O) (Rice; 2 WAT, 5.6 kg/h) | Plant Response Index (O) (Rice; 2 WAT, .28 kg/h) | Plant Response Index (O) (Rice; 4 WAT, 1.1 kg/h) | Plant Response Index (J) (Downy Brome; Table II, 4 WAT, 5.6 kg/h) | Plant Response Index (J) (Downy Brome; Table II, 4 WAT, 11.2 kg/h) | Plant Response Index (J) (Downy Brome; Table III, 2 WAT, 1.1 kg/h) | Plant Response Index (J) (Downy Brome; Table III, 2 WAT, 5.6 kg/h) | Plant Response Index (J) (Downy Brome; Table III, 2 WAT, .28 kg/h) | Plant Response Index (J) (Downy Brome; Table III, 4 WAT, 1.1 kg/h) | Plant Response Index (J) (Downy Brome; Table III, 4 WAT, 5.6 kg/h) | Plant Response Index (C) (Velvetleaf; Table II, 2 WAT, 11.2 kg/h) | Plant Response Index (C) (Velvetleaf; Table II, 4 WAT, 5.6 kg/h) | Plant Response Index (C) (Velvetleaf; Table III, 2 WAT, .28 kg/h) | Plant Response Index (Q) (Wild Buckwheat; 2 WAT, .28 kg/h) | Plant Response Index (I) (Johnsongrass; 2 WAT, 11.2 kg/h) | Plant Response Index (I) (Johnsongrass; 4 WAT, 5.6 kg/h) | Plant Response Index (S) (Panicum Spp; 2 WAT, 1.1 kg/h) | Plant Response Index (S) (Panicum Spp; 2 WAT, .28 kg/h) | Plant Response Index (S) (Panicum Spp; 4 WAT, .28 kg/h)
4 (100% inhibition): Plant Response Index (R) (Hemp Sesbania; 2 WAT, 5.6 kg/h) | Plant Response Index (R) (Hemp Sesbania; 4 WAT, 5.6 kg/h) | Plant Response Index (C) (Velvetleaf; Table III, 4 WAT, 5.6 kg/h) | Plant Response Index (Q) (Wild Buckwheat; 4 WAT, 5.6 kg/h)
0 (0-24% inhibition): Plant Response Index (R) (Hemp Sesbania; 4 WAT, .28 kg/h) | Plant Response Index (O) (Rice; 2 WAT, 1.1 kg/h) | Plant Response Index (O) (Rice; 4 WAT, .28 kg/h) | Plant Response Index (J) (Downy Brome; Table II, 2 WAT, 5.6 kg/h) | Plant Response Index (J) (Downy Brome; Table II, 2 WAT, 11.2 kg/h) | Plant Response Index (J) (Downy Brome; Table III, 4 WAT, .28 kg/h) | Plant Response Index (C) (Velvetleaf; Table II, 2 WAT, 5.6 kg/h) | Plant Response Index (Q) (Wild Buckwheat; 4 WAT, .28 kg/h) | Plant Response Index (I) (Johnsongrass; 2 WAT, 5.6 kg/h)
